Experimental data published in patent US9526717B2, “Composition for treating immune diseases containing daurinol compound as active ingredient” (THE CATHOLIC UNIVERSITY OF KOREA INDUSTRY-ACADEMIC …, priority 2013, dated 2016).

What was measured:
[1] = system: bone marrow macrophages (BMM); assay: Inhibitory effect on the differentiation of osteoclasts (TRAP+ multinucleate cells); type: cell-based, mouse; conditions: RANKL 50 ng/mL, M-CSF 30 ng/mL, 4 days
Excerpt: ICR mice (6 to 9 week-old male) were subjected to cervical dislocation and disinfected with 70% ethanol. The skin in the tibia area was cut off and the muscles attached thereto were detached. The distal center of tibia was cut off and tibia was ablated by dislocating patella. Both ends of the bone were slightly cut off and a 25G injection needle was indwelled therein on one end and α-MEM was flowed thereon and bone marrow cells were thereby collected into a test tube. After centrifugation, the resultant was suspended in α-MEM and red blood cells were removed by adding two volumes of Gey's solution. After centrifugation, the resultant was resuspended in α-MEM including 10% FBS and cultured to be used.
The cultured bone marrow cells were cultured overnight with macrophage colony stimulating factor (“M-CSF”, hereinafter) (10 ng/mL), and the suspension cells were cultured further with M-CSF (30 ng/mL) for 3 days, and thereby bone marrow macrophages (“BMM”) were formed. The thus-formed BMM was collected and cultured in 1×10^5 cells/well in the presence of receptor activator of NF-κB ligand (RANKL) (50 ng/mL), which is an osteoclast differentiation factor, and M-CSF (30 ng/mL) for 4 days. […] The resultant was observed under a microscope and TRAP+ cells having three or more nuclei were determined as multinucleate osteoclasts.

splenocytes cell line = assay: MTT assay for cytotoxicity; type: cell-based; conditions: splenocytes cell line 2×10^5 cells, 96-well plate
Experimental: Additionally, MTT assay was performed for the observation of cytotoxicity by daurinol treatment. To this end, splenocytes cell line (2×10^5 cells) were plated on a 96-well plate, and daurinol was treated with MTT reagent and wrapped with aluminum foil, and reacted at 37° C. for 4 hours. After 4 hours, the crystals formed were dissolved in DMSO and the absorbance was measured using the ELISA reader.

[2] = system: splenocytes of an animal model with lupus; assay: Th17/Treg activity by flow cytometry in splenocytes of animal model with lupus; type: cell-based; conditions: daurinol 1 μM, anti-CD3 0.5 μg/mL, three days
Experimental: Finally, for the confirmation of the controlling the activity of Th17/Treg cells, the splenocytes of an animal model with lupus were culture for three days after treating with daurinol (1 μM) and anti-CD3 (0.5 μg/mL), and the activity of Th17/Treg cells being controlled by daurinol was evaluated by flow cytometry.

[3] = system: animal model with graft versus host disease; assay: Therapeutic effect in animal model with graft versus host disease (GVHD); type: in vivo, mouse; conditions: GVHD Balb/c recipient mice, daurinol 20 mg/kg 3 times a week, total of 9 times, vs GVHD control group
Excerpt: In order to confirm whether daurinol can be actually applied to the treatment of a different immune disease, the therapeutic effects of daurinol was examined using an animal model with graft versus host disease. First, for the construction of an animal with graft versus host disease, a recipient mouse, Balb/c(H-2k/d), was exposed to total body irradiation (TBI) (800 cGy). Then, hematopoietic stem cells and splenocytes were isolated from the femur and the tibia of the donor mouse and the hematopoietic stem cells (5×10^6 cells) and the splenocytes (1×10^6 cells) were transplanted to a recipient mouse Balb/c(H-2k/d). After the transplantation, daurinol (20 mg/kg of weight) was injected 3 times a week for a total of 9 times, and in particular, daurinol was used after dissolving in a mixed solvent (DMSO:Crernophor EL:DW=1:1:8). The experiment was performed and analyzed for the experimental groups in which each group consisted of five mice.

[4] = system: splenocytes of the animal model with lupus; assay: TNF-α level in splenocytes of animal model with lupus (ELISA); type: cell-based; conditions: daurinol 1 μM and 5 μM, anti-CD3 0.5 μg/mL or LPS 100 ng/mL, three days
Experimental: Additionally, for the confirmation of the effect of controlling the formation of inflammatory cytokines, the splenocytes of the animal model with lupus were treated with daurinol (1 μM and 5 μM) and anti-CD3 (0.5 μg/mL) or LPS (100 ng/mL) for three days and the levels of IL-17 and TNF-α inflammatory cytokines were evaluated by ELISA assay.

VEGF = VEGF expression in human large intestine cell line HT-29; type: cell-based
[5] = system: animal model with inflammatory bowel disease (IBD); assay: H&E staining and TNF-α expression of large intestine tissues in IBD animal model; type: in vivo, mouse; conditions: DSS-induced IBD mice, daurinol treated
Excerpt: For the confirmation of the effect of the daurinol compound of the present invention on the treatment of inflammatory bowel disease, the present inventors first constructed an animal model with induced inflammatory bowel disease. For the experimental model, C57BL/6(H-2kb) mice were used. For the construction of an animal model with induced inflammatory bowel disease, the mice were fed with 3.5% dextran sulfate sodium (DSS) and water for a week, thereby preparing an animal model with induced inflammatory bowel disease. The present inventors divided the experimental animals into a normal control group, a group of an animal model with induced inflammatory bowel disease, and a group of an animal model with induced inflammatory bowel disease treated with daurinol or a TNF-α inhibitor, and the group treated with daurinol was administered orally and intrarectally with daurinol (20 mg/kg) from the 4th day after the induction with the disease. Additionally, for the confirmation of the histological findings of the tissues in the large intestine and the expression of inflammatory cytokines, a hematoxylin and eosin (H&E) staining was performed to examine whether the damage of the tissues in the large intestine was reduced by the daurinol treatment.

[6] = system: animal model with induced inflammatory bowel disease; assay: Weight, disease activity index and length of intestine in animal model with inflammatory bowel disease; type: in vivo, mouse
Excerpt: For the confirmation of the effect of the daurinol compound of the present invention on the treatment of inflammatory bowel disease, the present inventors first constructed an animal model with induced inflammatory bowel disease. For the experimental model, C57BL/6(H-2kb) mice were used. For the construction of an animal model with induced inflammatory bowel disease, the mice were fed with 3.5% dextran sulfate sodium (DSS) and water for a week, thereby preparing an animal model with induced inflammatory bowel disease. The present inventors divided the experimental animals into a normal control group, a group of an animal model with induced inflammatory bowel disease, and a group of an animal model with induced inflammatory bowel disease treated with daurinol or a TNF-α inhibitor, and the group treated with daurinol was administered orally and intrarectally with daurinol (20 mg/kg) from the 4th day after the induction with the disease. […] Additionally, one of the features of inflammatory bowel disease is that the damage and shortening of the length of the large intestine are related to the disease activity index. For the analysis of the therapeutic effect of daurinol on the inflammatory bowel disease, the experimental animals were euthanased two weeks after the daurinol treatment, and the length of their intestines were measured.

SMILES: COc1cc2c(-c3ccc4c(c3)OCO4)c3c(cc2cc1O)COC3=O [daurinol]
- differentiation of osteoclasts reduced by (number of TRAP+ multinucleate cells) ([1]; daurinol 2 μM): ≥ 60%
- differentiation of osteoclasts (number of TRAP+ multinucleate cells) ([1]; daurinol 10 μM): no differentiation of osteoclasts was observed
- cytotoxicity according to the concentration of daurinol (MTT) (splenocytes cell line): no significant cytotoxicity
- Th17 activity (flow cytometry) [2]: inhibit the Th17 activity
- activity of Foxp3+ Treg cells (flow cytometry) [2]: induce the activity of Foxp3+ Treg cells
- degree of disease [3]: improvement in the degree of disease
- degree of survival [3]: maintenance of the degree of survival for 30 days
- expression of TNF-α (ELISA) [4]: inhibited the expression of IL-17 and TNF-α in a dose-dependent manner
- activity of VEGF, analysis in terms of inhibition (%) (VEGF): significantly inhibits the activity of VEGF
- inhibitory effect against the VEGF expression, compared to comparators (VEGF): greater inhibitory effect against the VEGF expression compared to those of TNF-α inhibitor and merformin
- damage of the tissues in the large intestine (H&E staining) [5]: decrease in the intestinal tissue damage
- expression of TNF-α in large intestine tissues [5]: significantly inhibits
- disease activity index (DAI) ([6]; DSS-induced IBD C57BL/6 mice, daurinol 20 mg/kg orally and intrarectally from 4th day): significant decrease
- weight ([6]; DSS-induced IBD C57BL/6 mice, daurinol 20 mg/kg orally and intrarectally from 4th day, vs IBD group): significant improvement in weight
- length of the intestine ([6]; DSS-induced IBD mice, two weeks after the daurinol treatment, vs IBD group): significant increase in the length of the intestine
